Data published in ChEMBL document CHEMBL3832026.
Several values for one entry are separate records, joined by “and”; a condition that tells them apart may be missing. Equal values may be shown once.

What was measured:
Assay type in all cases: ADME, organism-based
[1] = (§1) Mean pharmacokinetic parameters of Mycophenolic acid following single oral administration of Mycophenolic acid delayed-release tablets to adult or pediatric (age range 5 to 16 years) renal transplant patients on Cyclosporine, USP MODIFIED based immunosuppression; design: dose 450 mg/m-2, dose 1 g, dose 720 mg, route oral; conditions: human, in vivo
Homo sapiens [2] = assay: as §1; design: dose 450 mg/m-2, dose 1 g, dose 720 mg, route oral; conditions: in vivo
[3] = (§2) Mean pharmacokinetic parameters of Mycophenolic acid following multiple dose administration of 720 mg Mycophenolic acid delayed-release tablets to adult renal transplant patients on Cyclosporine, USP MODIFIED based immunosuppression; design: dose 720 mg, route oral; conditions: human, in vivo, po, 720 mg
Homo sapiens [4] = assay: as §2; design: dose 720 mg, route oral; conditions: in vivo, po
[5] = (§3) Pharmacokinetic parameters of Mycophenolic acid following administration of 360 to 2160 mg Mycophenolic acid delayed-release tablets to renal transplant patients on Cyclosporine, USP MODIFIED based immunosuppression.; conditions: human, in vivo, po
Homo sapiens [6] = assay: as §3; conditions: in vivo, po

- Cmax [1]: 36300 ng/mL
- Tmax [1]: 2.5 h
- AUC ([1]; dosed compound id 90, dosed compound name MYCOPHENOLATE MOFETIL, regimen Single dose, tissue Plasma, read-out: AUC(0-48)): 42700 ng·h/mL
- AUC ([1]; read-out: AUC(0 to inf)): 74300 ng·h/mL
- AUC(0 to inf) (Homo sapiens [2]): 66.5 µg·h/mL
- Cmax (Homo sapiens [2]): 26.1 µg/mL
- Tmax (Homo sapiens [2]): 2 h
- AUC(0-48) (Homo sapiens [2]; dosed compound id 90, dosed compound name MYCOPHENOLATE MOFETIL, regimen Single dose, tissue Plasma): 48.3 µg·h/mL
- Tmax [3]: 2 h
- AUC(0-12) (Homo sapiens [4]): 57.4 mcg.hr/mL [middle of 6 runs]
- Cmax (Homo sapiens [4]): 26.2 mcg/mL [middle of 5 runs]
- Tmax (Homo sapiens [4]): 1.5 h and 2.5 h and 1.8 h
- CL/F [5]: 140 mL/min
- Vd (Homo sapiens [6]): 112 L
- Vss (Homo sapiens [6]): 54 L
SMILES: COc1c(C)c2c(c(O)c1C/C=C(\C)CCC(=O)O)C(=O)OC2 [MYCOPHENOLIC ACID]
